The values below come from publication PMC4057667, “Study on Biopharmaceutics Classification and Oral Bioavailability of a Novel Multikinase Inhibitor NCE for Cancer Therapy” (International Journal of Molecular Sciences, 2014).

In series [1] the test system is rat duodenum, jejunum and ileum. In words: In situ single-pass intestinal perfusion (SPIP). As to conditions: perfusate 40 μg/mL, n = 6. As to the method: The blank perfusion buffer solution was composed of 9.80 g Hanks’ Balanced Salts, 5.96 g 4-2(Hydroxyethyl) piperazine-1-ethanesulfonic acid (HEPES), 1.16 g NaCl, 3.50 g D-glucose and 0.37 g NaHCO3. The pH was adjusted to 6.5. […] The perfusate containing 2 μg/mL of NCE with and without 0.4% SDS was applied to three intestinal segments to investigate the effect of SDS on intestinal absorption of NCE. To examine whether there was any concentration-dependent characteristics or site specific absorption of NCE, 2, 20 and 40 μg/mL of NCE containing 0.4% SDS (w/v) were also studied in three intestinal segments using the same rat perfusion model.
Male Sprague-Dawley rats (170–230 g) were obtained from the Laboratory Animal Center, Sichuan University (Chengdu, China). Prior to the experiment, animals were fasted for at least 18 h with free access to water. All animal studies were approved and supervised by the State Key Laboratory of Biotherapy Animal Care and Use Committee (Sichuan University, Chengdu, Sichuan, China). Then, single pass intestine perfusion studies were conducted according to the literature. In brief, rats were anaesthetized by pentobarbital sodium (i.p., […]) and placed on a homeothermic pad to maintain their body temperature. After making a 3–4 cm midline abdominal incision, the small intestinal was exposed. The duodenum, jejunum and ileum were isolated as follows: duodenum segment beginning from 1 cm away from pylorus, jejunum segment beginning from 20 cm away from pylorus and ileum segment beginning at the site 20 cm upwards caecum. Each intestinal segment was approximately 10 cm long. After removing the intestinal content by rinsing with warm saline, two glass cannulas were inserted to the distal and proximal end of the segment. Then, the intestinal segments of interest were connected to a perfusion pump and the outlet tubing was placed at the same height as the inlet. The intestine was handled carefully to maintain an intact blood supply.
The segments were rinsed with perfusate at the rate of 1.0 mL/min for 10 min, and then perfused at the rate of 0.2 mL/min for 30 min to maintain a steady-state. The time was set zero immediately when the perfusion started. The outlet perfused samples were collected every 15 min until 120 min. Then, the samples were centrifuged at 1.3 × 10^4 rpm for 10 min. The supernatant was analyzed by HPLC. The length of tested segments was measured and rats were euthanized after experiment.
Peff is the quantitative parameter estimating the passage rate of a solute across a membrane. It was calculated from the steady-state concentration of NCE in the perfusate. The drug concentration in the perfusate was corrected for changes in the water flux. Meanwhile, the density corrected gravimetric method was employed to calculate the net water flux across the incubated intestinal segment. A known volume of perfusate was weighed using an electronic weighing balance to determine the density of the collected samples. After correcting for water flux, the drug concentration in the effluent perfusate (Cout(cor)), was calculated as following.
(3) Cout(cor)=Cout×Qout/Qin
where Cout is the concentration of tested drug in the effluent perfusates, Qin and Qout are the inlet and outlet flow rate (mL/min), respectively, which are adjusted for liquid density (mL/min).
The calculation of permeability across rat intestinal segment was performed from the intestinal perfusate samples collected over 15–120 min (steady state) using the following equation).
(4) Peff=-Qin ln(Cout(cor)/Cin)/2πrl

Series [2] has the same test system. Also noted: method as in PMID 15296954, PMID 8893271. As to conditions: reference compounds; cited from earlier work.
The test system of series [3] is rats. On the set-up: method as in ref 24 = [24]; 24. Ma N. Wang J. Xu F. Li J. Li Y. Xiao H. Xiang D. Studies on absorptive characters of resveratrol derivative (e)-3,5,4′-trimethoxystilbene in rat intestine Chin. J. Pharm. Anal 2010 30 586 591. As to conditions: in perfusion buffer, preliminary experiments; cited from earlier work.

As to `CNC(=C[N+](=O)[O-])NCCSCc1ccc(CN(C)C)o1` [Ranitidine, reference compound], the Peff was 0.15 ± 0.07 ^* 10^−4 cm/s in series [1] (Duodenum), 0.17 ± 0.02 ^N.S ^* 10^−4 cm/s in series [1] (Ileum) and 0.19 ± 0.07 ^N.S. ^* 10^−4 cm/s in series [1] (Jejunum). Besides, the permeability class result in series [2] was “low permeability”.
Take `CCCCCCCCCCCCOS(=O)(=O)[O-].[Na+]` [SDS, sodium dodecyl sulfate]: the “concentration toxic to rats” value in series [3] is “higher than 1%”.
Regarding `Cn1c(=O)c2[nH]cnc2n(C)c1=O` [Theophylline, reference compound], the Peff is listed as 0.74 ± 0.02 ^* 10^−4 cm/s in series [1] (Duodenum), 0.63 ± 0.04 ^N.S. ^* 10^−4 cm/s in series [1] (Ileum) and 0.64 ± 0.01 ^N.S. ^* 10^−4 cm/s in series [1] (Jejunum).
